# Several values for one entry are separate records, joined by “and”; a condition that tells them apart may be missing. Equal values may be shown once. Entries after “also recorded” stand apart in the source; their conditions may differ.
# What was measured:
# [1] = cited from earlier work
# [2] = tested on: myod1 (somites), fli1a (vasculature), ntla (notochord); assay: In situ hybridization for mesodermal markers myod1, fli1a, ntla in 10-somite embryos; format: in vivo, zebrafish
# Procedure: (§1) PTBA was synthesized as described below. Hydroxyurea and aphidicolin were obtained from Sigma-Aldrich.
# (§2) In situ hybridization and immunocytochemistry: In situ hybridization was performed as previously described with some modifications. 142 Hybridization temperature was 65° C. Embryos were blocked in 2% blocking reagent (Roche) with 5% sheep serum in MAB (100 mM maleic acid and 150 mM NaCl [pH 7.5]). Whole-mount immunocytochemistry with 1:25 mouse anti-α6F antibody (Developmental Studies Hybridoma Bank) and 1:100 Cy3 secondary antibody (Jackson ImmunoResearch) was performed as described previously. 108 Embryos were embedded in JB-4 for sectioning per the manufacturer's instructions (Polysciences), sectioned at 5 μm, and mounted with Cytoseal 60 (Richard-Allan Scientific).
# [3] = tested on: zebrafish larvae; assay: Phenotypic scoring of edema and survival in zebrafish larvae at 72 hpf; format: in vivo
# From the text: as §1
# Wild type: no visible edema or developmental delay.
# [4] = tested on: human HDACs (HeLa cell nuclear extract); assay: Fluorescence histone deacetylation assay with HeLa cell nuclear extract; format: biochemical; settings: 1 μM TSA, all input levels of nuclear extract
# Procedure: To evaluate this in vitro, the deacetylation of a fluorescent peptide substrate was measured in the presence of human HDACs.
# In vitro HDAC activity assays were performed using a fluorescence HDAC assay kit (Active Motif) according to the manufacturer's instructions. For maintaining compound solubility at 5 mM, the final DMSO concentration in all assay wells was increased to 5%. Fluorescence was detected using an M5 Plate Reader ([…])
# [5] = tested on: renal progenitor cells (lhx1a expression); assay: In situ hybridization for lhx1a expression in 10-somite embryos (renal progenitor cell expansion); format: in vivo
# Procedure: as §1, §2
# The remaining PTBA analogs were synthesized.
# In situ hybridization for lhx1a was performed as described above. […] Compounds were classified as effective, partially-effective or ineffective based on comparison to the effects of PTBA at a given concentration.
# Testing of the compounds is on-going, but for those tested, Table 3 provides first pass EC50s based upon colormetric in situ hybridizations for the Lhx1a mRNA expression levels. After the procedure is run, in situ hybridization is done for the lhx1 mRNA expression and the number of embryos that show an expanded kidney field is manually counted to establish the percent of embryos showing expansion. Then the EC50 is determined by plotting the percent expansion in Excel, graphing the results and using the trendline function to determine the 50 percent point. […] For UPHD-00186, the 4 values for EC50 are shown in Table 3 for the corresponding expression in zebrafish embryos employed an artificial intelligence-based image analysis method termed cognition network technology (CNT) for n=4.
# [6] = tested on: histone H4 acetylation; assay: Histone H4 hyperacetylation Western blot in embryos; format: in vivo, zebrafish; settings: 24 hpf embryos treated 6 hours; 3 μM PTBA, 25 μM PBA, 200 nM TSA
# Procedure: It was next determined whether the HDACi function of PTBA was quantifiable in vivo. 24 hpf embryos were treated with 3 μM PTBA, 25 μM PBA, or 200 nM TSA for 6 hours. Protein extracts were prepared and immunoblotted with an anti-hyperacetylated histone H4 antibody. […] Furthermore, increasing the compound concentration caused a corresponding increase in hyperacetylation (FIG. 21).
# SDS-PAGE and Western blotting were performed as described previously with some modifications (Noel, E. S. et al. Organ-specific requirements for Hdac1 in liver and pancreas formation. Dev Biol 322, 237-250, (2008)). Proteins were separated on 18% SDS-PAGE gels. Membranes were incubated at 4° C. overnight with 1:1000 anti-hyperacetylated histone H4 antibody (06-946, Millipore) or 1:1000 anti-α-tubulin antibody (Sigma-Aldrich) in PBT containing 5% nonfat milk.
# [7] = tested on: mouse models of unilateral ureteral obstruction (UUO); assay: Unilateral ureteral obstruction (UUO); format: in vivo
# From the text: The model of unilateral ureteral obstruction generates progressive renal fibrosis. Surgically created UUO can be experimentally manipulated with respect to timing, severity, and duration, while reversal of the obstruction permits the study of recovery.
# FIG. 47 represents the results of the testing of compounds UPHD-00022, UPHD-00025 (PTBA), UPHD-00029, UPHD-00036, and UPHD-00186, for their efficacy in mouse models of unilateral ureteral obstruction (UUO) as follows: in the UUO models, one ureter was ligated for 7 days and compounds were delivered via IP for days 0 to 6. At day 7 kidneys were harvested for Sirius red staining. […] Therefore, in the models tested, the only compound proven to be effective in all models and with significant delayed onset of treatment is UPHD-186.
# [8] = tested on: kidney field (cad17:EGFP); assay: Image-based high-content screen, Tg(cad17:EGFP) embryos, CNT analysis; format: in vivo, zebrafish; settings: 4 individual values (n=4)
# From the text: Initial studies, above, used a phenotypic marker of the ability to expand the renal progenitor cell field in larval zebrafish, and identified the first member of a novel class of HDAC inhibitors, PTBA as well as a few structural and functional analogs. These findings form the basis for further study. However, this technology is limited as it is dependent on subjective interpretation of a subtle phenotypic change in the fish. Therefore, in order to develop a more objective and higher content screen, we developed an image-based high-content screen using transgenic zebrafish (Vogt A, et al. Automated image-based phenotypic analysis in zebrafish embryos. Dev Dyn. 2009; 238(3):656-63). […] Tg(Cad17:EGFP) zebrafish is a transgenic line that was prepared by isolation of an approximately 5 kb (5066 bp) promoter element and approximately 3 kb (3221 bp) first intron element from the cadherin 17 locus, cloning it into a plasmid along with the enhanced GFP open reading frame and injecting if into zebrafish embryos to established transgenic lines using the meganuclease transgenesis method (Soroldoni et al., Simple and efficient transgenesis with meganuclease constructs in zebrafish, Methods Mol Bio 2009; 546: 117-30.). […]
# For all second-generation compounds, the cad17:EGFP transgene is used as the primary readout to assay for expansion of kidney field (FIG. 35). […]
# [9] = tested on: BALB/c mice, severe IR-AKI; assay: Severe ischemia-reperfusion AKI (IR-AKI); format: in vivo, mouse
# Procedure: Surgeries were performed on a water-bath heated platform at 38° C. on 10-12 week old male BALB/c mice. For moderate IR-AKI, mice underwent a right nephrectomy followed by left renal pedicle clamping (800 μm pressure clamp, FST 18052-03). The clamp was released after 26 minutes, and tissue reperfusion was confirmed before completing the surgery. Mice were treated daily with indicated doses of compounds or equivalent volume of 20% 2-hydroxypropyl-β-cyclodextrin in water as vehicle control starting 24 h after injury. Since initial injury with this model is variable, mice were randomly allocated vehicle or m4PTB treatment if their serum creatinine levels were 0.8 to 1.2 mg/dl 24 h post IR injury. Other mice were excluded from further analysis and euthanized. To induce severe IR-AKI, mice underwent left renal pedicle clamping for 30 minutes and delayed contralateral nephrectomy was performed after 8 days.
# For mouse studies, kidney sections were stained using Periodic Acid-Schiff (PAS) to assess renal tubular injury. Tubular injury (casts, dilated tubules, epithelial cell blebbing, and vacuolization, loss of brush borders or nuclei) was scored as described. Sirius red staining was performed using an established protocol used to evaluate renal fibrosis/collagen accumulation in kidney sections. To quantify Sirius red staining we used an Olympus BX-41 microscope equipped with an Olympus DP-72 digital camera system and polarizing light filter. Results are expressed as the mean percent fibrosis for all of the images per slide region (Sirius red positive/total surface area).
# We used of 2-hydroxypropyl-β-cyclodextrin (CD, Sigma), a low toxicity drug formulation vehicle that has been well characterized and used extensively as a hydrophobic drug delivery vehicle. We could achieve concentrations of up to ˜12 mg/ml of PTBA analogues in 20% CD in water (100 mg/kg in volumes of ˜150-250 μl), and daily IP injections with 200 μl 20% CD in water had no effect on renal functional recovery following IR-AKI. Therefore all studies were performed using compounds dissolved in 20% CD. To assess dosing and biological activity of PTBA analogues in mice, CD1 mice were injected with varying doses of compounds IP and kidneys isolated at different time point for histone extraction and analysis of histone H4 acetylation, a marker of HDAC inhibitor activity, as outlined below. Based on results of these studies, mice were treated daily with 1, 10, 50 or 100 mg/kg of compound or equivalent volume of 20% CD vehicle control starting 24 h after injury.
# ˜30 μl blood was obtained by tail vein bleed at different time points, and serum samples frozen after confirming that they had not undergone hemolysis (which interferes with enzymatic analysis for serum creatinine). Serum creatinine was evaluated in duplicate samples using a commercially available enzymatic cascade assay (Pointe Scientific, requires only ˜7 μl of serum). […] Blood Urea Nitrogen (BUN) was determined in duplicate samples using a colorimetric enzymatic assay kit (Infinity Urea, Thermo Scientific), and spot urinary albumin/creatinine ratios determined using a mouse albumin ELISA and urinary creatinine assay kit (Albuwell and Creatinine Companion, Exocell).
# Compounds 22, 25, 29, 36, and 186 were injected for 7 days at […] starting 24 hrs after severe IR treatment. […] Fibrotic (scar) tissue was measured using Sirus Red after 28 days for various markers of fibrosis.
# [10] = 7 days at 50 mg/ml starting 24 hrs after severe IR
smiles,measurement,setting,value
O=C(O)CCCc1ccccc1 [Buphenyl],half-life (t1/2),[1]; following administration,~1 h
same,bioavailability,[1]; taken orally,about 80%
"CC(/C=C/C(=O)NO)=C\[C@@H](C)C(=O)c1ccc(N(C)C)cc1 [TSA, trichostatin A]",embryos with disrupted normal ntla expression,[2]; 200 nM,86%
same,embryos with decreased myod1 expression,"[2]; 3 μM PTBA (slightly decreased), 25 μM PBA, 200 nM TSA",100%
same,embryos with decreased fli1a expression,"[2]; 25 μM PBA, 200 nM TSA",95%
same,treated 72 hpf larvae killed,[3]; 300 nM,greater than 90%
same,larval phenotype in phenotypic screen of analogs,"[3]; 3 μM, 2 to 72 hpf",generated edemic and/or lethal phenotypes
same,death (lethality) by 72 hpf,"[3]; 25 μM PBA, 200 nM TSA, n=90",61%
same,larvae with edemic phenotype / pericardial edema at 72 hpf,"[3]; treated from 2 hpf, 3 μM PTBA, 25 μM PBA, 200 nM TSA",100%
same,effect on HDAC activity,[4],completely blocked activity; also recorded: inhibit all HDAC activity
same,embryos with expanded lhx1a expression (% expansion),[5]; 100 nM,97%
same,"lhx1a expansion class, 100 nM",[5]; 100 nM from 2 hpf,+
same,embryos with expanded lhx1a expression (% expansion),[5]; 200 nM,100%
same,"lhx1a expansion class, 200 nM",[5]; 200 nM from 2 hpf,+
same,lethality before the 10-somite stage,[5]; 400 nM,died before reaching 10 somites
same,lethality before the 10-somite stage,[5]; 800 nM,lethal
same,lethality before the 10-somite stage,[5]; 1.5 μM,lethal
same,lethality before the 10-somite stage,[5]; 3 μM,killed all treated embryos
same,concentration producing lhx1a expansion consistent with 3 μM PTBA,[5]; 10-somite embryos,200 nM
same,histone H4 hyperacetylation,[6],hyperacetylation was observed
"O=C(CCCSc1ccccc1)Nc1ccccc1O [UPHD-00186, N-(2-hydroxyphenyl)-4-(phenylsulfanyl) butanamide]",fibrosis (Sirius red) and expression of fibrosis markers in UUO kidney,"[7]; IP days 0 to 6, kidneys harvested at day 7",reduce both fibrosis and expression of fibrosis markers
same,prevention of post injury fibrosis in UUO compared with Vorinostat (SAHA),"[7]; mouse, in vivo",more effective than the FDA approved HDACi drug Vorinostat (SAHA)
same,EC50,[8],0.649 µM and 0.81 µM and 0.818 µM
same,EC50,[8]; Danio rerio,0.587 µM
same,"fibrosis after 28 days (Sirus Red, markers of fibrosis)",[9]; [10],most reduction in fibrosis
same,serum creatinine at day 9,[9]; [10],better activity
same,effect of timing of treatment in severe IR-AKI,[9]; FIG. 46,has still a significant effect on IR-AKI after more than 7 days
same,post injury fibrosis with delayed treatment,"[9]; treatment 3 days after IR-AKI, FIG. 48",still markedly reduces post injury fibrosis
same,reduction in post injury fibrosis at various dosages,"[9]; various dosages, FIG. 45",efficient at elevated doses

# From patent US10233201B2, “Class of HDAC inhibitors expands the renal progenitor cells population and improves the rate of recovery from acute kidney injury” (University of Pittsburgh—Of the Commonwealth System of …, priority 2012, dated 2019)
